According to ChEMBL document CHEMBL1126634, “Cyclic sulfolanes as novel and high affinity P2 ligands for HIV-1 protease inhibitors” (J Med Chem, 1993):

Key:
[1] = target: Human immunodeficiency virus type 1 protease (Human immunodeficiency virus 1, UniProt Q72874); assay: Tested against S2-binding site of HIV-1 protease
[2] = target: Human immunodeficiency virus type 1 protease (Human immunodeficiency virus 1) (UniProt Q72874); assay: Antiviral potency of HIV-1 in MT-4 human T lymphoid cells with IIIb isolate; type: functional, cell-based
MT4 = assay: Compound tested for the antiviral potency of HIV-1 in MT-4 human T lymphoid cells with IIIb isolate (n=5); type: functional; settings: read-out: CIC95

Row | IC50 [1] [µM] | IC95 [2] [µM] | Structure (SMILES) | IC95 (MT4) [µM]
1 | 0.009 | – | CC(C)[C@H]1SCC[C@H]1OC(=O)N[C@@H](Cc1ccccc1)[C@H](O)CN1C[C@H]2CCCC[C@H]2C[C@H]1C(=O)NC(C)(C)C | –
2 | 0.012 | 0.4 | CC(C)C[C@H]1[C@@H](OC(=O)N[C@@H](Cc2ccccc2)[C@H](O)CN2C[C@H]3CCCC[C@H]3C[C@H]2C(=O)NC(C)(C)C)CCS1(=O)=O | –
3 | 0.011 | 0.2 | CC(C)[C@H]1[C@@H](OC(=O)N[C@@H](Cc2ccccc2)[C@H](O)CN2C[C@H]3CCCC[C@H]3C[C@H]2C(=O)NC(C)(C)C)CCS1(=O)=O | –
4 | 1.03 | – | CC(C)(C)NC(=O)[C@@H]1C[C@@H]2CCCC[C@@H]2CN1C[C@@H](O)[C@H](Cc1ccccc1)NC(=O)OCCS(C)(=O)=O | –
5 | 0.694 | – | NC(=O)OC[C@@H]1CCCOC1 | –
6 | 0.03 | 1.5 | CC(C)C[C@@H]1[C@H](OC(=O)N[C@@H](Cc2ccccc2)[C@H](O)CN2C[C@H]3CCCC[C@H]3C[C@H]2C(=O)NC(C)(C)C)CCS1(=O)=O | –
7 | 0.0131 | 0.8 | CC[C@@H]1[C@H](OC(=O)N[C@@H](Cc2ccccc2)[C@H](O)CN2C[C@H]3CCCC[C@H]3C[C@H]2C(=O)NC(C)(C)C)CCS1(=O)=O | –
8 | – | 0.8 | CC(C)(C)NC(=O)[C@@H]1C[C@@H]2CCCC[C@@H]2CN1C[C@@H](O)[C@H](Cc1ccccc1)NC(=O)O[C@H]1CCOC1 | –
9 | 0.0054 | 0.4 | CC[C@H]1[C@@H](OC(=O)N[C@@H](Cc2ccccc2)[C@H](O)CN2C[C@H]3CCCC[C@H]3C[C@H]2C(=O)NC(C)(C)C)CCS1(=O)=O | –
10 | 0.003 | 0.05 | CC(C)[C@@H]1[C@H](OC(=O)N[C@@H](Cc2ccccc2)[C@H](O)CN2C[C@H]3CCCC[C@H]3C[C@H]2C(=O)NC(C)(C)C)CCS1(=O)=O | –

Row | Structure (SMILES) | IC50 [1] [µM] | IC95 [2] [µM] | IC95 (MT4) [µM]
11 | C[C@H]1[C@@H](OC(=O)N[C@@H](Cc2ccccc2)[C@H](O)CN2C[C@H]3CCCC[C@H]3C[C@H]2C(=O)NC(C)(C)C)CCS1(=O)=O | 0.0114 | 0.2 | –
12 | CC(C)(C)NC(=O)[C@@H]1C[C@@H]2CCCC[C@@H]2CN1C[C@@H](O)[C@H](Cc1ccccc1)NC(=O)O[C@H]1CCS(=O)(=O)C1 | 0.075 | – | 0.35
13 | CC(C)(C)NC(=O)[C@@H]1C[C@@H]2CCCC[C@@H]2CN1C[C@@H](O)[C@H](Cc1ccccc1)NC(=O)O[C@@H]1CCS(=O)(=O)C1 | 0.14 | > 0.8 | –
14 | C[C@@H]1[C@H](OC(=O)N[C@@H](Cc2ccccc2)[C@H](O)CN2C[C@H]3CCCC[C@H]3C[C@H]2C(=O)NC(C)(C)C)CCS1(=O)=O | 0.0223 | 0.2 | –
15 | C[C@@H]1OCC[C@@H]1OC(=O)N[C@@H](Cc1ccccc1)[C@H](O)CN1C[C@H]2CCCC[C@H]2C[C@H]1C(=O)NC(C)(C)C | 0.0524 | 0.4 | –
16 | C[C@H]1OCC[C@H]1OC(=O)N[C@@H](Cc1ccccc1)[C@H](O)CN1C[C@H]2CCCC[C@H]2C[C@H]1C(=O)NC(C)(C)C | 0.169 | 1.6 | –
